Data taken from PMC2903464, “NPR-B natriuretic peptide receptors in human corneal epithelium: mRNA, immunohistochemistochemical, protein, and biochemical pharmacology studies” (Molecular Vision, 2010).

Target: T1, NPR-B (Homo sapiens, UniProt P20594)
T1 construct: gene NPR2; endogenous membrane guanylyl cyclase receptor in intact CEPI-17-CL4 cells; NPR-A also expressed; homodimer
T1 sequence (P20594 23-1047): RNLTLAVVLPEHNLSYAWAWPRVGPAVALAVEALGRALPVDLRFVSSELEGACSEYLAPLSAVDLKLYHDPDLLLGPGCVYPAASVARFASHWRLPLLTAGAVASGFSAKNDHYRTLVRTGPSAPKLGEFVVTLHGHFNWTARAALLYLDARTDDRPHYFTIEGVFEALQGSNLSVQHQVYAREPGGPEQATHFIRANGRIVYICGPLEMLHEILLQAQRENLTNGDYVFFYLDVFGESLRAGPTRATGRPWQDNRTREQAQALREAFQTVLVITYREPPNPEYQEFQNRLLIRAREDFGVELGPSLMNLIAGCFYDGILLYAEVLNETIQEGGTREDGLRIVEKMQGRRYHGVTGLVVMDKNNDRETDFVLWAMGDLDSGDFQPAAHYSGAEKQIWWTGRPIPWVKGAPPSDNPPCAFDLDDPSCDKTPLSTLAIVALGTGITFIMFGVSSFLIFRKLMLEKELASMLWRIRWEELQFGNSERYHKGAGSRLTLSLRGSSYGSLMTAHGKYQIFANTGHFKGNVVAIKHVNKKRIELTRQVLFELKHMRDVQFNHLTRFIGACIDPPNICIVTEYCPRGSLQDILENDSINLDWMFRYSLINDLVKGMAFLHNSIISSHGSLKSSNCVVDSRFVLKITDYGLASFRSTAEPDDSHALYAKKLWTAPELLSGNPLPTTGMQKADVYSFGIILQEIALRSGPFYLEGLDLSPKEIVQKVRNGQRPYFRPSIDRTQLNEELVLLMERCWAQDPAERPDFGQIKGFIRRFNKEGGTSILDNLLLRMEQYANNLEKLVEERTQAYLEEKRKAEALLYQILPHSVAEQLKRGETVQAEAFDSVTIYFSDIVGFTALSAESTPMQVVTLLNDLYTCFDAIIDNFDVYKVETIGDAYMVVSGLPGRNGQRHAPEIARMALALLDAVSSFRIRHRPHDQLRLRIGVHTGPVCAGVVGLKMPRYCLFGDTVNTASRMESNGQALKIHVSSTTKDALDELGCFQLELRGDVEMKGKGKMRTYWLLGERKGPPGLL
Assay: inhibition of CNP fragment-induced cGMP accumulation in CEPI-17-CL4 cells, enzyme immunoassay
Assay type: cell-based
Settings: 30 nM CNP fragment as agonist, 1 mM IBMX, 23 °C, 20 min pre-incubation; partial inhibition; native cells expressing NPR-A and NPR-B; compound described as NPR-A antagonist

O=C1Nc2ccccc2C1=O [isatin]
Ki: 5.3 ± 1.7 µM
